Our source for the IC50 and EC50 values is patent US8431568B2, “Aromatic heterocyclic fused indolobenzadiazepine HCV NS5B inhibitors” (Bristol-Myers Squibb Company, priority 2008, dated 2013).

Usually IC50 stands for the concentration that gives 50% inhibition. A lower IC50 goes with higher potency. As usually defined, the EC50 is the concentration giving half of the maximal effect. Low values mean greater potency, high ones weaker potency.

SMILES strings stand for the structures.

In assay [1] the target is T1, HCV NS5B RdRp genotype 1b (Hepatitis C virus genotype 1b, UniProt Q9WMX2).
T1 construct: The protein was expressed with an 18 amino acid C-terminal truncation to enhance the solubility; made in house; host or cells: E. coli BL21(DE3), pET21a vector
T1 sequence (Q9WMX2 2420-2992): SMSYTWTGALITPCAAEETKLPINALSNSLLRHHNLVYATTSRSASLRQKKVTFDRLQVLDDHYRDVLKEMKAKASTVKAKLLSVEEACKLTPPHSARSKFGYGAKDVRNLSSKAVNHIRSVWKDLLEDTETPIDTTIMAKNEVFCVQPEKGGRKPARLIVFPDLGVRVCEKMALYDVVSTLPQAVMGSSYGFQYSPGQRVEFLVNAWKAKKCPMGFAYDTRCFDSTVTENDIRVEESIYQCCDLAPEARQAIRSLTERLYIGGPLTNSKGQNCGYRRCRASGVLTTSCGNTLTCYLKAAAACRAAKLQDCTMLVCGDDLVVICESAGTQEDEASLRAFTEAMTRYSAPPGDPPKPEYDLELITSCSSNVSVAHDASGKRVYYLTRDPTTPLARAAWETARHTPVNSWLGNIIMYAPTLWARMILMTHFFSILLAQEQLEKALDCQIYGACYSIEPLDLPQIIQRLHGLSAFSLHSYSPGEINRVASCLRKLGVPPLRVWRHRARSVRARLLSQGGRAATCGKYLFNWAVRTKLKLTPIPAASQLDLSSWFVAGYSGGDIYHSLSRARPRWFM
The experiment in a line: Modified HCV NS5B RdRp enzyme assay (preincubation protocol). The assay is classed as biochemical. The procedure:
HCV NS5B RdRp Cloning, Expression, and Purification.
The cDNA encoding the NS5B protein of HCV, genotype 1b, was cloned into the pET21a expression vector. The protein was expressed with an 18 amino acid C-terminal truncation to enhance the solubility. The E. coli competent cell line BL21(DE3) was used for expression of the protein. Cultures were grown at 37° C. for ˜4 hours until the cultures reached an optical density of 2.0 at 600 nm. The cultures were cooled to 20° C. and induced with 1 mM IPTG. Fresh ampicillin was added to a final concentration of 50 μg/ml and the cells were grown overnight at 20° C.
Cell pellets (3 L) were lysed for purification to yield 15-24 mgs of purified NS5B. The lysis buffer consisted of 20 mM Tris-HCl, pH 7.4, 500 mM NaCl, 0.5% triton X-100, 1 mM DTT, 1 mM EDTA, 20% glycerol, 0.5 mg/ml lysozyme, 10 mM MgCl2, 15 ug/ml deoxyribonuclease I, and Complete TM protease inhibitor tablets (Roche). After addition of the lysis buffer, frozen cell pellets were resuspended using a tissue homogenizer. To reduce the viscosity of the sample, aliquots of the lysate were sonicated on ice using a microtip attached to a Branson sonicator. The sonicated lysate was centrifuged at 100,000×g for 1 hr at 4° C. and filtered through a 0.2 μm filter unit (Corning).
The protein was purified using three sequential chromatography steps: Heparin sepharose CL-6B, polyU sepharose 4B, and Hitrap SP sepharose (Pharmacia). The chromatography buffers were identical to the lysis buffer but contained no lysozyme, deoxyribonuclease I, MgCl2 or protease inhibitor and the NaCl concentration of the buffer was adjusted according to the requirements for charging the protein onto the column. Each column was eluted with a NaCl gradient which varied in length from 5-50 column volumes depending on the column type. After the final chromatography step, the resulting purity of the enzyme is >90% based on SDS-PAGE analysis. The enzyme was aliquoted and stored at −80° C.
Standard HCV NS5B RdRp Enzyme Assay.
HCV RdRp genotype 1b assays were run in a final volume of 60 μl in 96 well plates (Costar 3912). The assay buffer is composed of 20 mM Hepes, pH 7.5, 2.5 mM KCl, 2.5 mM MgCl2, 1 mM DTT, 1.6 U RNAse inhibitor (Promega N2515), 0.1 mg/ml BSA (Promega R3961), and 2% glycerol. All compounds were serially diluted (3-fold) in DMSO and diluted further in water such that the final concentration of DMSO in the assay was 2%. HCV RdRp genotype 1b enzyme was used at a final concentration of 28 nM. A polyA template was used at 6 nM, and a biotinylated oligo-dT12 primer was used at 180 nM final concentration. Template was obtained commercially (Amersham 27-4110). Biotinylated primer was prepared by Sigma Genosys. 3H-UTP was used at 0.6 μCi (0.29 μM total UTP). Reactions were initiated by the addition of enzyme, incubated at 30° C. for 60 min, and stopped by adding 25 μl of 50 mM EDTA containing SPA beads (4 μg/μl, Amersham RPNQ 0007). Plates were read on a Packard Top Count NXT after >1 hr incubation at room temperature.
Modified HCV NS5B RdRp Enzyme Assay.
A modified enzyme assay was performed essentially as described for the standard enzyme assay except for the following: The biotinylated oligo dT12 primer was precaptured on streptavidin-coated SPA beads by mixing primer and beads in assay buffer and incubating at room temperature for one hour. Unbound primer was removed after centrifugation. The primer-bound beads were resuspended in 20 mM Hepes buffer, pH 7.5 and used in the assay at final concentrations of 20 nM primer and 0.67 μg/μl beads. Order of addition in the assay: enzyme (14 nM) was added to diluted compound followed by the addition of a mixture of template (0.2 nM), 3H-UTP (0.6 μCi, 0.29 μM), and primer-bound beads, to initiate the reaction; concentrations given are final. Reactions were allowed to proceed for 4 hours at 30° C.
IC50 values for compounds were determined using seven different [I]. […]

Assay [2] concerns HCV replicon cells. The experiment in a line: HCV replicon FRET assay. The assay is classed as cell-based. The settings on record: Hepatitis C virus. From the text:
To perform the HCV FRET screening assay, 96-well cell culture plates were used. The FRET peptide (Anaspec, Inc.) (Taliani et al., Anal. Biochem. 1996, 240, 60-67) contains a fluorescence donor, EDANS, near one end of the peptide and an acceptor, DABCYL, near the other end. The fluorescence of the peptide is quenched by […] resonance energy transfer (RET) between the donor and the acceptor, but as the NS3 protease cleaves the peptide the products are released from RET quenching and the fluorescence of the donor becomes apparent. The assay reagent was made as follows: 5× cell Luciferase cell culture lysis reagent from Promega (#E153A) diluted to 1× with dH2O, NaCl added to 150 mM final, the FRET peptide diluted to 20 uM final from a 2 mM stock.
To prepare plates, HCV replicon cells, with or without a Renilla luciferase reporter gene, were trypsinized and placed into each well of a 96-well plate with titrated test compounds added in columns 3 through 12; columns 1 and 2 contained a control compound (HCV protease inhibitor), and the bottom row contained cells without compound. The plates were then placed in a CO2 incubator at 37° C.
Subsequent to addition of the test compounds described above (FRET Assay Preparation), at various times the plate was removed and Alamar blue solution (Trek Diagnostics, #00-100) was added per well as a measure of cellular toxicity. After reading in a Cytoflour 4000 instrument (PE Biosystems), plates were rinsed with PBS and then used for FRET assay by the addition of 30 ul of the FRET peptide assay reagent described above (FRET Assay Preparation) per well. The plate was then placed into the Cytoflour 4000 instrument which had been set to 340 excite/490 emission, automatic mode for 20 cycles and the plate read in a kinetic mode. Typically, the signal to noise using an endpoint analysis after the reads was at least three-fold. Alternatively, after Alamar blue reading, plates were rinsed with PBS, 50 ul of DMEM (high glucose) without phenol red was added and plates were then used for luciferase assay using the Promega Dual-Glo Luciferase Assay System.
Compound analysis was determined by quantification of the relative HCV replicon inhibition and the relative cytotoxicity values. To calculate cytoxicity values, the average Alamar Blue fluorescence signals from the control wells were set as 100% non-toxic. The individual signals in each of the compound test wells were then divided by the average control signal and multiplied by 100% to determine […]. To calculate the HCV replicon inhibition values, an average background value was obtained from the two wells containing the highest amount of HCV protease inhibitor at the end of the assay period. These numbers were similar to those obtained from naïve Huh-7 cells.
The background numbers were then subtracted from the average signal obtained from the control wells and this number was used as 100% activity. The individual signals in each of the compound test wells were then divided by the averaged control values after background subtraction and multiplied by 100% to determine percent activity. EC50 values for a protease inhibitor titration were calculated as the concentration which caused a 50% reduction in FRET or luciferase activity. The two numbers generated for the compound plate, percent cytoxicity and percent activity were used to determine compounds of interest for further analysis.
Background: In antiviral work, replicon cells carry a viral genome segment that copies itself.

Consider `O=C(O)c1ccc2c(C3CCCCC3)c3n(c2c1)Cc1nncn1-c1ccccc1-3` [Example 1, 10-Cyclohexyl-4H-indolo[1,2-d][1,2,4]triazolo[4,3-a][1,4]benzodiazepine-7-carboxylic acid], for which, in assay [1], inhibition was half-maximal at 140 nM (IC50). For the same compound, the EC50 in assay [2] stood at 910 nM.
On the same counts, the results for `CN(C)S(=O)(=O)NC(=O)c1ccc2c(C3CCCCC3)c3n(c2c1)Cc1nncn1-c1ccccc1-3` [Example 2, 10-Cyclohexyl-N-((dimethylamino)sulfonyl)-4H-indolo[1,2-d][1,2,4]triazolo[4,3-a][1,4]benzodiazepine-7-carboxamide] are 20 nM and 160 nM.
Taken in the same sequence, the figures for `Cc1nnc2n1-c1ccccc1-c1c(C3CCCCC3)c3ccc(C(=O)O)cc3n1C2` [Example 3, 10-Cyclohexyl-1-methyl-4H-indolo[1,2-d][1,2,4]triazolo[4,3-a][1,4]benzodiazepine-7-carboxylic acid] were 170 nM and 770 nM.
On the same counts, the results for `Cc1nnc2n1-c1ccccc1-c1c(C3CCCCC3)c3ccc(C(=O)NS(=O)(=O)N(C)C)cc3n1C2` [Example 4, 10-Cyclohexyl-N-((dimethylamino)sulfonyl)-1-methyl-4H-indolo[1,2-d][1,2,4]triazolo[4,3-a][1,4]benzodiazepine-7-carboxamide] are 54 nM and 320 nM.
Consider `O=C(O)c1ccc2c(C3CCCCC3)c3n(c2c1)Cc1nccn1-c1ccccc1-3` [Example 5, 10-Cyclohexyl-4H-imidazo[1,2-a]indolo[1,2-d][1,4]benzodiazepine-7-carboxylic acid], for which half-maximal inhibition in assay [1] (IC50) was put at 26 nM. For the same compound, the EC50 in assay [2] stood at 740 nM.
On the same counts, the results for `CN(C)S(=O)(=O)NC(=O)c1ccc2c(C3CCCCC3)c3n(c2c1)Cc1nccn1-c1ccccc1-3` [Example 6, 10-Cyclohexyl-N-((dimethylamino)sulfonyl)-4H-imidazo[1,2-a]indolo[1,2-d][1,4]benzodiazepine-7-carboxamide] are 19 nM and 390 nM.
Turning to `Cc1cn2c(n1)Cn1c(c(C3CCCCC3)c3ccc(C(=O)O)cc31)-c1ccccc1-2` [Example 7, 10-Cyclohexyl-2-methyl-4H-imidazo[1,2-a]indolo[1,2-d][1,4]benzodiazepine-7-carboxylic acid], the IC50 in assay [1] was 130 nM. The compound further had an EC50 in assay [2] of 2850 nM.
Regarding `Cc1cn2c(n1)Cn1c(c(C3CCCCC3)c3ccc(C(=O)NS(=O)(=O)N(C)C)cc31)-c1ccccc1-2` [Example 8, 10-Cyclohexyl-N-((dimethylamino)sulfonyl)-2-methyl-4H-imidazo[1,2-a]indolo[1,2-d][1,4]benzodiazepine-7-carboxamide], the midpoint of inhibition in assay [1], the IC50, lay at 33 nM. The compound also had an EC50 in assay [2] of 710 nM.
